# Reference: ChEMBL document CHEMBL4325880, “Design, synthesis and biological evaluation of novel zanamivir derivatives as potent neuraminidase inhibitors” (Bioorg Med Chem Lett, 2018)
# Experiments:
# Influenza A virus = assay: Antiviral activity against Influenza A virus (A/WSN/1933(H1N1)) infected in MDCK cells assessed as reduction in virus-induced cytopathic effect measured everyday; assay type: functional, organism-based
# [1] = Inhibition of Clostridium neuraminidase preincubated for 2 mins followed by neuraminidase fluorescent addition and measured after 30 mins by fluorescence assay
# [2] = Selectivity index, ratio of CC50 for MDCK cells to IC50 for Influenza A virus (A/WSN/1933(H1N1)); assay type: toxicity; conditions: dog, read-out: Ratio CC50/IC50
# [3] = Cytotoxicity against MDCK cells assessed as reduction in cell viability after 72 hrs by CellTiter-Glo assay; assay type: cell-based, Canis lupus familiaris; conditions: dog
SMILES,IC50 (Influenza A virus; read-out: pIC50 (converted)),also measured
CC(=O)N[C@H]1[C@H]([C@H](O)[C@H](O)CO)OC(C(=O)O)=C[C@@H]1NC(=N)NC(=O)CSc1ccc2ccccc2c1,20.1 nM,–
COc1cc(CCC(=O)NC(=N)N[C@H]2C=C(C(=O)O)O[C@@H]([C@H](O)[C@H](O)CO)[C@@H]2NC(C)=O)cc(OC)c1OC,239 nM,–
CC(=O)N[C@H]1[C@H]([C@H](O)[C@H](O)CO)OC(C(=O)O)=C[C@@H]1NC(=N)NC(=O)Cc1ccc2ccccc2c1,55 nM,–
CC(=O)N[C@H]1[C@H]([C@H](O)[C@H](O)CO)OC(C(=O)O)=C[C@@H]1NC(=N)NC(=O)c1ccc([N+](=O)[O-])cc1,152 nM,–
COc1ccccc1CCC(=O)NC(=N)N[C@H]1C=C(C(=O)O)O[C@@H]([C@H](O)[C@H](O)CO)[C@@H]1NC(C)=O,196 nM,–
CC(=O)N[C@H]1[C@H]([C@H](O)[C@H](O)CO)OC(C(=O)O)=C[C@@H]1NC(=N)NC(=O)CC12CC3CC(CC(C3)C1)C2,275 nM,–
CC(=O)N[C@H]1[C@H]([C@H](O)[C@H](O)CO)OC(C(=O)O)=C[C@@H]1NC(=N)NC(=O)CC(C)CCC=C(C)C (stereo not given in full),541 nM,–
CC(=O)N[C@H]1[C@H]([C@H](O)[C@H](O)CO)OC(C(=O)O)=C[C@@H]1NC(=N)NC(=O)CCc1ccccc1C(F)(F)F,332 nM,–
CC(=O)N[C@H]1[C@H]([C@H](O)[C@H](O)CO)OC(C(=O)O)=C[C@@H]1NC(=N)NC(=O)CCc1ccc2ccccc2c1,74.8 nM,–
CC(=O)N[C@H]1[C@H]([C@H](O)[C@H](O)CO)OC(C(=O)O)=C[C@@H]1NC(=N)NC(=O)CCCCC1CCCCC1,260 nM,–
CC(=O)N[C@H]1[C@H]([C@H](O)[C@H](O)CO)OC(C(=O)O)=C[C@@H]1NC(=N)NCCSc1ccccc1,39400 nM,–
CC(=O)N[C@H]1[C@H]([C@H](O)[C@H](O)CO)OC(C(=O)O)=C[C@@H]1NC(=N)NC(=O)CCc1ccccc1,203 nM,–
CC(=O)N[C@H]1[C@H]([C@H](O)[C@H](O)CO)OC(C(=O)O)=C[C@@H]1NC(=N)NC(=O)CCc1ccc(N)cc1,176 nM,–
CCC(C)C(=O)NC(=N)N[C@H]1C=C(C(=O)O)O[C@@H]([C@H](O)[C@H](O)CO)[C@@H]1NC(C)=O (stereo not given in full),774 nM,–
CC(=O)N[C@H]1[C@H]([C@H](O)[C@H](O)CO)OC(C(=O)O)=C[C@@H]1NC(=N)NC(=O)CCCc1ccc(N)cc1,421 nM,–
CC(=O)N[C@H]1[C@H]([C@H](O)[C@H](O)CO)OC(C(=O)O)=C[C@@H]1NC(=N)NC(=O)CCCCCc1ccccc1,233 nM,–

SMILES,IC50 (Influenza A virus; read-out: pIC50 (converted)),also measured
CC(=O)N[C@H]1[C@H]([C@H](O)[C@H](O)CO)OC(C(=O)O)=C[C@@H]1NC(=N)NC(=O)CCC1CCOC1 (stereo not given in full),1200 nM,–
COc1ccccc1CC(=O)NC(=N)N[C@H]1C=C(C(=O)O)O[C@@H]([C@H](O)[C@H](O)CO)[C@@H]1NC(C)=O,209 nM,–
CC(=O)N[C@H]1[C@H]([C@H](O)[C@H](O)CO)OC(C(=O)O)=C[C@@H]1NC(=N)NC(=O)CSc1ccccc1,189 nM,–
CC(=O)N[C@H]1[C@H]([C@H](O)[C@H](O)CO)OC(C(=O)O)=C[C@@H]1NC(=N)NC(=O)/C=C/c1cc(F)cc(F)c1,166 nM,–
CC(=O)N[C@H]1[C@H]([C@H](O)[C@H](O)CO)OC(C(=O)O)=C[C@@H]1NC(=N)NC(=O)CCc1ccccc1Br,134 nM,–
CC(=O)N[C@H]1[C@H]([C@H](O)[C@H](O)CO)OC(C(=O)O)=C[C@@H]1NC(=N)NC(=O)Cc1ccccc1,46 nM,–
CC(=O)N[C@H]1[C@H]([C@H](O)[C@H](O)CO)OC(C(=O)O)=C[C@@H]1NC(=N)NC(=O)Cc1cccc2ccccc12,98.4 nM,–
CC(=O)N[C@H]1[C@H]([C@H](O)[C@H](O)CO)OC(C(=O)O)=C[C@@H]1NC(=N)NC(=O)CCc1ccccc1C,462 nM,–
CC(=O)N[C@H]1[C@H]([C@H](O)[C@H](O)CO)OC(C(=O)O)=C[C@@H]1NC(=N)NC(=O)CCCOc1ccccc1,397 nM,–
CC(=O)N[C@H]1[C@H]([C@H](O)[C@H](O)CO)OC(C(=O)O)=C[C@@H]1NC(=N)NC(=O)CCCCCCCCCCOc1ccccc1,203 nM,–
CC(=O)N[C@H]1[C@H]([C@H](O)[C@H](O)CO)OC(C(=O)O)=C[C@@H]1NC(=N)NC(=O)Cc1ccc(F)cc1,–,IC50 [1]: 35400 nM; selectivity ratio [2]: > 149; IC50 (Influenza A virus; read-out: IC50): 670 nM; CC50 at 72 h [3]: > 100000 nM
CC(=O)N[C@H]1[C@H]([C@H](O)[C@H](O)CO)OC(C(=O)O)=C[C@@H]1NC(=N)NCCc1ccc2ccccc2c1,34700 nM,–
CC(=O)N[C@H]1[C@H]([C@H](O)[C@H](O)CO)OC(C(=O)O)=C[C@@H]1NC(=N)NC(=O)CCOc1ccccc1,180 nM,–
"CC(=O)N[C@@H]1C(NC(=N)NC(=O)c2ccc(-c3ccc(O)cc3)cc2)C=C(C(=O)O)O[C@H]1[C@H](O)C(O)CO (single isomer, unassigned)",–,IC50 [1]: 97500 nM; selectivity ratio [2]: > 14; IC50 (Influenza A virus; read-out: IC50): 6950 nM; CC50 at 72 h [3]: > 100000 nM
CC(=O)N[C@H]1[C@H]([C@H](O)[C@H](O)CO)OC(C(=O)O)=C[C@@H]1NC(=N)N [ZANAMIVIR],–,IC50 [1]: 130000 nM; selectivity ratio [2]: > 115; IC50 (Influenza A virus; read-out: IC50): 873 nM; CC50 at 72 h [3]: > 100000 nM
